Cn1cnc([N+](=O)[O-])c1Cl
Settings | solubility (mole fraction)
in 1,4-dioxane, 283.15 K | 0.00714
in 1,4-dioxane, 285.65 K | 0.00797
in 1,4-dioxane, 288.15 K | 0.00882
in 1,4-dioxane, 290.65 K | 0.00986
in 1,4-dioxane, 293.15 K | 0.0109
in 1,4-dioxane, 295.65 K | 0.0119
in 1,4-dioxane, 298.15 K | 0.0129
in 1,4-dioxane, 300.65 K | 0.014
in 1,4-dioxane, 303.15 K | 0.0151
in 1,4-dioxane, 305.65 K | 0.0161
in 1,4-dioxane, 308.15 K | 0.0173
in 1,4-dioxane, 310.65 K | 0.0186
in 1,4-dioxane, 313.15 K | 0.0198
in 1,4-dioxane, 315.65 K | 0.021
in 1,4-dioxane, 318.15 K | 0.0225
in 2-butanone, 283.15 K | 0.0145
in 2-butanone, 285.65 K | 0.016
in 2-butanone, 288.15 K | 0.0176
in 2-butanone, 290.65 K | 0.0194
in 2-butanone, 293.15 K | 0.0214
in 2-butanone, 295.65 K | 0.0235
in 2-butanone, 298.15 K | 0.0259
in 2-butanone, 300.65 K | 0.0282
in 2-butanone, 303.15 K | 0.0308
in 2-butanone, 305.65 K | 0.0335
in 2-butanone, 308.15 K | 0.0368
in 2-butanone, 310.65 K | 0.04
in 2-butanone, 313.15 K | 0.0434
in 2-butanone, 315.65 K | 0.0474
in 2-butanone, 318.15 K | 0.0512
in NMP, 283.15 K | 0.157
in NMP, 285.65 K | 0.162
in NMP, 288.15 K | 0.168
in NMP, 290.65 K | 0.174
in NMP, 293.15 K | 0.181
in NMP, 295.65 K | 0.188
in NMP, 298.15 K | 0.195
in NMP, 300.65 K | 0.202
in NMP, 303.15 K | 0.209
in NMP, 305.65 K | 0.217
in NMP, 308.15 K | 0.224
in NMP, 310.65 K | 0.233
in NMP, 313.15 K | 0.242
in NMP, 315.65 K | 0.252
in NMP, 318.15 K | 0.261
in acetone, 283.15 K | 0.0181
in acetone, 285.65 K | 0.0202
in acetone, 288.15 K | 0.0222
in acetone, 290.65 K | 0.0248
in acetone, 293.15 K | 0.027
in acetone, 295.65 K | 0.0299
in acetone, 298.15 K | 0.0326
in acetone, 300.65 K | 0.0358
in acetone, 303.15 K | 0.0391
in acetone, 305.65 K | 0.0426
in acetone, 308.15 K | 0.0465
in acetone, 310.65 K | 0.0508
in acetone, 313.15 K | 0.0555
in acetone, 315.65 K | 0.06
in acetone, 318.15 K | 0.0656
in chloroform, 283.15 K | 0.0132
in chloroform, 285.65 K | 0.0142
in chloroform, 288.15 K | 0.0156
in chloroform, 290.65 K | 0.017
in chloroform, 293.15 K | 0.0185
in chloroform, 295.65 K | 0.0201
in chloroform, 298.15 K | 0.0219
in chloroform, 300.65 K | 0.0236
in chloroform, 303.15 K | 0.0255
in chloroform, 305.65 K | 0.0276
in chloroform, 308.15 K | 0.0298
in chloroform, 310.65 K | 0.0322
in chloroform, 313.15 K | 0.0345
in chloroform, 315.65 K | 0.0372
in chloroform, 318.15 K | 0.0399
in ethanol, 283.15 K | 0.00218
in ethanol, 285.65 K | 0.00235
in ethanol, 288.15 K | 0.00259
in ethanol, 290.65 K | 0.00283
in ethanol, 293.15 K | 0.00313
in ethanol, 295.65 K | 0.00347
in ethanol, 298.15 K | 0.00381
in ethanol, 300.65 K | 0.00417
in ethanol, 303.15 K | 0.00456
in ethanol, 305.65 K | 0.00497
in ethanol, 308.15 K | 0.00539
in ethanol, 310.65 K | 0.00587
in ethanol, 313.15 K | 0.00643
in ethanol, 315.65 K | 0.00705
in ethanol, 318.15 K | 0.00784
in ethyl acetate, 283.15 K | 0.00846
in ethyl acetate, 285.65 K | 0.00911
in ethyl acetate, 288.15 K | 0.00983
in ethyl acetate, 290.65 K | 0.0108
in ethyl acetate, 293.15 K | 0.0118
in ethyl acetate, 295.65 K | 0.0128
in ethyl acetate, 298.15 K | 0.0139
in ethyl acetate, 300.65 K | 0.015
in ethyl acetate, 303.15 K | 0.0162
in ethyl acetate, 305.65 K | 0.0177
in ethyl acetate, 308.15 K | 0.0191
in ethyl acetate, 310.65 K | 0.0204
in ethyl acetate, 313.15 K | 0.0218
in ethyl acetate, 315.65 K | 0.0235
in ethyl acetate, 318.15 K | 0.0253
in isopropanol, 283.15 K | 0.00108
in isopropanol, 285.65 K | 0.00125
in isopropanol, 288.15 K | 0.00142
in isopropanol, 290.65 K | 0.00158
in isopropanol, 293.15 K | 0.00176
in isopropanol, 295.65 K | 0.00195
in isopropanol, 298.15 K | 0.00219
in isopropanol, 300.65 K | 0.00247
in isopropanol, 303.15 K | 0.00278
in isopropanol, 305.65 K | 0.00313
in isopropanol, 308.15 K | 0.00352
in isopropanol, 310.65 K | 0.00408
in isopropanol, 313.15 K | 0.00468
in isopropanol, 315.65 K | 0.00533
in isopropanol, 318.15 K | 0.00593
in methanol, 283.15 K | 0.0028
in methanol, 285.65 K | 0.00316
in methanol, 288.15 K | 0.00349
in methanol, 290.65 K | 0.00385
in methanol, 293.15 K | 0.0042
in methanol, 295.65 K | 0.0046
in methanol, 298.15 K | 0.00506
in methanol, 300.65 K | 0.00554
in methanol, 303.15 K | 0.00603
in methanol, 305.65 K | 0.00651
in methanol, 308.15 K | 0.00699
in methanol, 310.65 K | 0.00756
in methanol, 313.15 K | 0.00811
in methanol, 315.65 K | 0.0087
in methanol, 318.15 K | 0.00936
in n-propanol, 283.15 K | 0.00152
in n-propanol, 285.65 K | 0.00168
in n-propanol, 288.15 K | 0.00187
in n-propanol, 290.65 K | 0.00208
in n-propanol, 293.15 K | 0.00232
in n-propanol, 295.65 K | 0.00258
in n-propanol, 298.15 K | 0.00282
in n-propanol, 300.65 K | 0.00308
in n-propanol, 303.15 K | 0.00342
in n-propanol, 305.65 K | 0.0038
in n-propanol, 308.15 K | 0.00418
in n-propanol, 310.65 K | 0.00468
in n-propanol, 313.15 K | 0.00522
in n-propanol, 315.65 K | 0.00592
in n-propanol, 318.15 K | 0.0066
in toluene, 283.15 K | 0.00194
in toluene, 285.65 K | 0.00208
in toluene, 288.15 K | 0.00228
in toluene, 290.65 K | 0.00248
in toluene, 293.15 K | 0.00272
in toluene, 295.65 K | 0.00298
in toluene, 298.15 K | 0.00325
in toluene, 300.65 K | 0.00358
in toluene, 303.15 K | 0.0039
in toluene, 305.65 K | 0.00428
in toluene, 308.15 K | 0.00468
in toluene, 310.65 K | 0.00518
in toluene, 313.15 K | 0.00568
in toluene, 315.65 K | 0.00622
in toluene, 318.15 K | 0.00683

Source: BigSolDB 2.1
